Molecules are shown by their SMILES. Like-named read-outs stand apart in the source and are kept apart here.

A word on the IC50: it is the concentration needed to halve the response being measured. In general, half-life refers to the time needed for the level to fall by half in the phase considered. The term AUC(0-inf) denotes total exposure, with the tail of the curve extrapolated. What is called Cmax is the peak of the concentration-time curve. By clearance is commonly meant the volume of plasma or blood freed of the substance per unit of time.

In one data set the target is CYP2C19 (Homo sapiens (Human), UniProt P33261). The data set can be described thus: CYP450 enzyme inhibition study, CYP2C19. It counts as in vitro ADME. As for the experimental part: 500 μL of a final incubation system contains 50 μL of human liver microsomes (protein concentration: 0.2 mg/mL, Corning), 1 μL of mixed CYP450 specific substrates (CYP1A2, CYP 2B6, CYP 2C9, CYP2C19, CYP 2D6, and CYP 3A4), 398 μL PBS buffer (pH7.4), 1 μL specific positive inhibitor (positive control group) or the test compound (formulated with acetonitrile), and 50 μL NADPH+MgCl2. Duplicate incubation systems of 0.5 mL each were formulated for each CYP450 subtype. A total volume of 450 μL of a uniformly mixed solution of the substrate and the enzyme was formulated in each tube, and the solution and NADPH were pre-incubated at 37° C. for 5 minutes, respectively. Then 50 μL of the mixed solution of NADPH+MgCl2 was added for reaction. 50 μL of the reaction solution was taken out at 30 minutes, and the reaction was terminated with 300 μL of ice acetonitrile containing an internal standard. In addition, two control groups of 500 μL each without NADPH were prepared in parallel as a negative control group.
Sample pre-treatment: To 50 μL of the incubated sample was added 300 μL of ice acetonitrile containing an internal standard, and then precipitated. After vortexing for 5 minutes, the sample was centrifugated (12000 rpm, 4° C.) for 10 minutes. 75 μL of the supernatant was pipetted, and 75 μL of ultrapure water was added thereto for dilution and mixed uniformly. […]

Data set [1] can be described thus: Plasma protein binding assay, monkey plasma. It counts as in vitro ADME. As for the experimental part:
Formulation of plasma sample: 495 μL of blank plasmas of the corresponding species (mouse, rat, dog, monkey, and human) were drawn respectively, and thereto was added 5 μL of the corresponding test compound solution or positive control to give plasma sample solutions having a plasma drug concentration of the compound of 1 μM, and 10 μM, respectively (formulated with acetonitrile).
The pre-treated dialysis membrane was placed in a high-throughput equilibrium dialysis device, and 100 μL of the plasma sample solution and PBS buffer solution were drawn and added respectively to both sides of the dialysis membrane (sample side and buffer side) (n=3). After the equilibration device was sealed with a film, it was incubated at 37° C. overnight (100 rpm). After dialysis equilibrium was reached, 50 μL samples were drawn from the sample side and the buffer side, respectively, and the reaction was terminated by adding ice acetonitrile containing an internal standard.
Sample pre-treatment: To 50 μL of the plasma-side sample was added 450 μL of ice acetonitrile containing an internal standard, and then precipitated. After vortexing for 5 minutes, the sample was centrifugated (12000 rpm, 4° C.) for 10 minutes. 75 μL of the supernatant was pipetted, and 75 μL of ultrapure water was added thereto for dilution and mixed uniformly. 1 μL of the resulting solution was injected for analysis. […]

A short description of data set [2]: Stability of liver microsomes in vitro, rat. The data set is classed as in vitro ADME. As for the experimental part:
300 μL of a final incubation system contains 30 μL of liver microsomes (protein concentration: 0.15 mg/mL, Corning), 30 μL NADPH+MgCl2, 3 μL substrate (formulated with acetonitrile), and 237 μL PBS buffer. Duplicate incubation systems of 0.3 mL each were formulated for each species. A total volume of 270 μL of a uniformly mixed solution of the substrate and the enzyme was formulated in each tube, the solution and NADPH were pre-incubated at 37° C. for 5 minutes, respectively. Then 30 μL of the mixed solution of NADPH+MgCl2 was added for reaction. 50 μL of the reaction solution was taken out at 0, 10, 30, and 60 mins, and the reaction was terminated with 300 μL of ice acetonitrile containing an internal standard.
Sample pre-treatment: To 50 μL of the incubated sample was added 300 μL of ice acetonitrile containing diazepam as an internal standard and then precipitated. After vortexing for 5 minutes, the sample was centrifugated (12000 rpm, 4° C.) for 10 minutes. 75 μL of the supernatant was pipetted into a 96-well plate, and then diluted with 75 μL ultrapure water and mixed uniformly. 0.5 μL of the resulting solution was injected and analyzed by LC-MS/MS.
(In general: Liver microsomes are a subcellular fraction often used to study metabolism.)

The next data set concerns HBV DNA in serum. As to the kind of experiment: pAAV/HBV mouse model. The data set is classed as in vivo, C57BL/6 mice. The note with it: 3 mpk intragastric once daily. On the procedure:
6-8 week old male C57BL/6 mice (Shanghai Lingchang Biotechnology Co., Ltd.) were used, and each mouse was injected with purified recombinant plasmid pAAV/HBV1.2 ([…]) dissolved in PBS equivalent to a volume of about 10% of its body weight through the tail vein within 3-8 s. Blood was collected from the orbits of the mice at 3 days after the plasmid injection to detect serum HBV DNA. The model mice having uniform serum DNA were selected and divided into: a model control group, a vehicle control group, and a test substance group. Mice in each group were continuously administered intragastrically once daily for 10 days at a dose of 3 mg/kg. The mouse serum was taken on day 0, 4, 7, and 10 after the administration, and the mice were sacrificed on day 10 to take liver tissue samples. The HBV DNA copy numbers in serum and liver of the mice were detected by fluorescent quantitative PCR method.

Data set [3] is described as follows: In vivo pharmacokinetics (PK) study in rats. Set-up: species or system SD rats. The note with it: for half-life: SD, in vivo; for AUC(0-t): read-out: AUC(0-48 h).
[4] abbreviates: rat, plasma, SD rats, IV 5 mg/kg.
The mark [5] stands for this setting: rat, plasma, SD rats, PO 10 mg/kg.

Chain of CYP2C19 (P33261 whole entry): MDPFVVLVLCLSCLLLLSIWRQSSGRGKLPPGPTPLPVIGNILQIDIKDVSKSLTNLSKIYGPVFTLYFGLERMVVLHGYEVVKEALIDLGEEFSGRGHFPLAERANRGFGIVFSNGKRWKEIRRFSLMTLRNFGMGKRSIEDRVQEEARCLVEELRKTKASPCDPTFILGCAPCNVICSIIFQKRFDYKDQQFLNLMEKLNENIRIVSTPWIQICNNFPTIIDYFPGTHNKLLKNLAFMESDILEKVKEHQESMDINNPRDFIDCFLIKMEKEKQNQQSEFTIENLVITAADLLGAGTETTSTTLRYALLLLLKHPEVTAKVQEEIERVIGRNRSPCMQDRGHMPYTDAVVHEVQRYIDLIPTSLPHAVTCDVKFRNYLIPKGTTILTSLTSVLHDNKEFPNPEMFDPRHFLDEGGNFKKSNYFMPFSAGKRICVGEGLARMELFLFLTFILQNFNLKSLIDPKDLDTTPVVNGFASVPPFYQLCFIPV

In turn, `Cc1[nH]c(C(=O)C(=O)N[C@@H](C)C(F)(F)F)c(C)c1C(=O)Nc1ccc(F)c(C#N)c1` [Example 1, (S)—N-(3-cyano-4-fluorophenyl)-2,4-dimethyl-5-(2-oxo-2-((1,1,1-trifluoroprop-2-yl)amino)acetyl)-1H-pyrrole-3-carboxamide] showed an IC50 against CYP2C19 of 20 µM. In addition, the “Binding rate (%) Monkey” value in data set [1] (1 μM) is 90.2%. Also, the “Binding rate (%) Monkey” value in data set [1] (10 μM) is 90.5%. Also, the “Remaining (%) of rat liver microsomes at 60 min” value in data set [2] is 99%. The “Reduction levels (log10) of HBV DNA in serum, Day 4” value with HBV DNA in serum (Day 4) was 2.95 log10. In the data set on HBV DNA in serum (Day 7), the “Reduction levels (log10) of HBV DNA in serum, Day 7” value came to 4.13 log10. In the data set on HBV DNA in serum (Day 10), the “Reduction levels (log10) of HBV DNA in serum, Day 10” value amounted to 2.71 log10. The same molecule yielded a F in data set [3] (SD rats, PO 10 mg/kg vs IV 5 mg/kg) of 100%. Also, the half-life in data set [3] (rat, iv, 5 mg/kg) was 52.8 h. Besides, in data set [3] (rat, po, 10 mg/kg), the half-life is 45.6 h. In data set [3] (setting [4]), the AUC(0-inf) amounted to 148 µg·h/mL, the concentration peaked (Cmax) at 3510 ng/mL, the clearance is 0.5 mL/min/kg and the AUC(0-t) stood at 127 µg·h/mL. Moreover, the Vd in data set [3] (rat, plasma, SD rats, IV 5 mg/kg, read-out: Vz) was 2.58 L/kg. In addition, in data set [3] (setting [5]), the AUC(0-inf) amounted to 284 µg·h/mL, the Cmax was found to be 4110 ng/mL and the AUC(0-t) was determined as 254 µg·h/mL.

The values are drawn from patent US12240811B2, “N-heterocyclic five-membered ring-containing capsid protein assembly inhibitor, pharmaceutical composition and uses thereof” (CHIA TAI TIANQING PHARMACEUTICAL GROUP CO., LTD., priority 2019, dated 2025).
